From patent US20250041624A1, “METHOD FOR ENHANCING ACTIVITY OF PHOTOSENSITIZER BY MAGNETIC FIELD” (PEKING UNIVERSITY, priority 2021, published 2025)

Experiments:
[1] = Reaction rate of fluorescent probe SOSG with 1O2 generated by photosensitizer under light and magnetic field; type: physicochemical; settings: for first derivative of the I525 nm−t curve (normalized): RB and SOSG 10 μmol/L in water, 561 nm LED 5 mW·cm−2, time 0
Method: (1) The photosensitizer Rose Bengal (RB) (the purity >98%, available from Saen Chemical Technologies (Shanghai) Ltd. Co., branded as Energy Chemical) and singlet oxygen fluorescent probe (SOSG) are dissolved in water (SOSG available from ThermoFisher Scientific (China) Co., Ltd.). In the resulting solution, the photosensitizer and SOSG are both at a concentration of 10 μmol/L. In a magnetic field with certain strength, the solutions are exposed to a 561 nm LED lamp (light emitting diode) at a power of 5 mW·cm^−2 and tested for fluorescence spectra at 0, 15, 30, 45, 60, 90, 120 and 180 seconds of light exposure, respectively, resulting in emission intensity ([…]) versus time (t) curves. The above fluorescence spectroscopy test is performed at a magnetic field strength of 0, 10, 35, 85, 180, 300 mT, respectively (external magnetic field provided by a neodymium iron boron permanent magnet).
(2) The photosensitizer chlorin e6 (Ce6, Chlorin e6) (available from Saen Chemical Technologies (Shanghai) Ltd. Co., branded as Energy Chemical) and singlet oxygen fluorescent probe (SOSG) are dissolved in water, both with a concentration of 10 μmol/L in the resulting solutions. In a magnetic field with certain strength, the solutions are exposed to a 640 nm LED lamp (light emitting diode) at a power of 5 mW·cm^−2 and tested for fluorescence spectra at 0, 15, 30, 45, 60, 90, 120 and 180 seconds of light exposure, respectively, resulting in emission intensity ([…]) versus time (t) curves. The above fluorescence spectra are tested at a magnetic field strength of 0, 10, 30, 70, 150, 250 mT, respectively.
The external magnetic field is supplied by Neodymium Iron Boron Permanent Magnet. Fluorescence spectra are tested using Edinburg FLS980 Steady State Transient Fluorescence Spectrometer with a detector of PMT R928 and a light source of 450 W ozone-free xenon lamp with excitation wavelength of λex=488 nm.
Under irradiation conditions, photosensitizer is excited to produce singlet oxygen ^1O2, and fluorescent probe SOSG reacts with ^1O2 to give endoperoxide with green fluorescence emission characteristic, with emission wavelength of 525 nm under excitation wavelength conditions of 488 nm. The reaction has a reaction rate of r.
In the present invention, through application of light and a magnetic field, the magnetic field effects (MFEs) is quantified by mfeR, the change rate of the reaction rate r, mfeR=(rB−r0)/r0×100%, where r0 is the reaction rate at a magnetic field strength of 0 mT and rB is the reaction rate at a magnetic field strength of B mT. Where the reaction rate (r) is proportional to the slope of the tangent of a curve (first derivative of the curve) of the emission intensity (I525 nm) versus time (t). Under magnetic field strengths of 0, 10, 35, 85, 180, 300 mT and from the time of starting to illuminate and place in magnetic field (the time recorded as 0), the first derivative of the I525 nm−t curve is 1, 1.05, 1.09, 0.99, 1.12, 1.14 (normalized).

HeLa cells = test: 14-day culture and crystal violet staining of HeLa cells after light and magnetic field; type: cell-based
Method: (2) HeLa cells (1×10^3/well) are seeded in 6-well plates, 30 μL aqueous solution of RB (final concentration of 30 μM) or equal volume 0.01M PBS buffer is added as control, and, after 24 h incubation in DMEM (comprising FBS) medium, cells are washed 3 times with PBS buffer.
The cells are treated in the dark or with 10 min light (561 nm […], 5 mW·cm^−2) under magnetic field conditions at 0 mT, 250 mT, 800 mT respectively. Culture is continued in the dark, and media is changed every other day. After 14 days, it is rinsed with PBS buffer and methanol, and cells are stained with added 0.1 wt % aqueous solution of crystal violet, and the number of cells in the plate is shown in FIG. 9; and the relative cell activity of HeLa cells at a concentration of 30 μmol/L RB under the magnetic field conditions of 0 mT, 250 mT, 800 mT is shown in FIG. 10.

Bax/Bcl-2 = test: Western blot of Bax/Bcl-2 in HeLa cells; type: cell-based; settings: RB 30 μmol/L treated HeLa; light; 250 mT vs no magnetic field
Method: (§1) HeLa cells (2×10^4/well) are seeded in 6-well plates and cultured for 24 hours, added with RB solution (final concentration 30 μmol/L) or PBS buffer (final concentration 0.01 mol/L), and after treating 24 hours, cells are washed 3 times with PBS buffer.
(§2) The cells are placed under a magnetic field at 0, 250 or 800 mT, simultaneously with light (561 nm, 5 mW·cm^−2) or in the dark. After 24 hours treatment, cells are washed with PBS buffer and collect by centrifugation. Protein is extracted from cells using RIPA lysis buffer (medium lysis strength). Target protein is detected with primary antibody, to identify cleaved Caspase-3 protease, Bax (BCL2-Associated X protein) and Bcl-2 (B lymphocytomatose-2 gene), respectively, with β-Actin antibody as the reference. Images are acquired by Bio-Rad ChemiDoc touch imaging system, and results are shown in FIG. 14, in which, group A is PBS buffer treated HeLa cells (light, no magnetic field); group B is RB treated HeLa cells (light, no magnetic field); group C is RB-treated Hela cells (light, 250 mT magnetic field); group D is RB-treated Hela cells (light, 800 mT magnetic field).
(§3) The change rate of protein expression is (AB−A0)/A0×100%, where AB and A0 are protein expression with and without magnetic field, respectively (obtained by ImageJ software analyzing the bands in FIG. 14).

cleaved Caspase-3 = test: Western blot of cleaved Caspase-3 in HeLa cells; type: cell-based; settings: RB 30 μmol/L treated HeLa; light; 250 mT vs no magnetic field
Method: as §1, §2, §3

[2] = Body weight, abnormal signs and H&E staining of major organs of treated mice; type: in vivo; settings: all groups
From the text: Test (two): After sacrificing the mice on day 14, tumor tissue and major organs (heart, liver, spleen, lungs and kidney) are collected and detected histologically. Tumor tissue and major organs are fixed by 10% neutral formalin solution. Hematoxylin-Eosin (H&E) staining is used to analyze toxicity of light and magnetic field effects on tumor and normal organs. Terminal deoxynucleotidyl transferase-mediated dUTP nick end labeling (TUNEL) staining is used to detect apoptosis in tumor tissue, and expression of cleaved Caspase-3, Bax and Bcl-2 in tumor tissue is simultaneously detected.

Structure (SMILES): O=C1OC2(c3cc(I)c(O)c(I)c3Oc3c2cc(I)c(O)c3I)c2c(Cl)c(Cl)c(Cl)c(Cl)c21 [RB, Rose Bengal]
- first derivative of the I525 nm−t curve (normalized) ([1]; MF 0 mT): 1
- first derivative of the I525 nm−t curve (normalized) ([1]; MF 10 mT): 1.05
- first derivative of the I525 nm−t curve (normalized) ([1]; MF 35 mT): 1.09
- first derivative of the I525 nm−t curve (normalized) ([1]; MF 85 mT): 0.99
- first derivative of the I525 nm−t curve (normalized) ([1]; MF 180 mT): 1.12
- first derivative of the I525 nm−t curve (normalized) ([1]; MF 300 mT): 1.14
- mfer (change rate of reaction rate r of SOSG with 1O2) ([1]; peak, MF 250 mT vs 0 mT, FIG. 1): 25%
- cytotoxicity against HeLa cells in the absence of light (HeLa cells; RB 30 μM, dark, with or without magnetic field, FIG. 9): no cytotoxicity
- cell numbers relative to PBS-only treatment (HeLa cells; RB 30 μM, light alone (0 mT), 14 days, FIG. 9): significantly lower
- cell numbers (HeLa cells; RB 30 μM, light, 250 mT, 14 days, FIG. 9): the least
- cell numbers (HeLa cells; RB 30 μM, light, 800 mT, 14 days, FIG. 9): more under 800 mT conditions compared to 0 mT and 250 mT conditions
- reduction of cell number relative to 0 mT (HeLa cells; RB 30 μmol/L, light, 250 mT, FIG. 10): 17%
- increase of cell number relative to 0 mT (HeLa cells; RB 30 μmol/L, light, 800 mT, FIG. 10): 32%
- change rate of Bax/Bcl-2 expression (%) (Bax/Bcl-2): 10.6 ± 0.5%
- change rate of cleaved Caspase-3 expression (%) (cleaved Caspase-3): 34.1 ± 1.9%
- systemic toxicity (H&E staining of major organs) ([2]; heart, liver, spleen, lungs and kidney, day 14, FIG. 20): do not result in systemic toxicity
- body weight loss or other abnormal signs ([2]; mice, 14 days): No body weight loss or other abnormal signs
